By inhibition is commonly meant the relative decrease from the control value, in per cent.

The assay concerns the target T1, AXL (Homo sapiens, UniProt P30530).
T1 construct: purchased Thermo Fisher Scientific (Life Technologies) SelectScreen
Put plainly: SelectScreen Z'LYTE. Type of assay: biochemical. In outline:
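Compound tested in SelectScreen activity assays, Z'LYTE for CSF1R, CDK1/cyclin B and MAP2K6 and Adapta for CAMK1. ATP for CAMK1 was listed as 10, and Km app was used for CSF1R. Results are expressed in percent.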

T1 sequence (P30530 26-894): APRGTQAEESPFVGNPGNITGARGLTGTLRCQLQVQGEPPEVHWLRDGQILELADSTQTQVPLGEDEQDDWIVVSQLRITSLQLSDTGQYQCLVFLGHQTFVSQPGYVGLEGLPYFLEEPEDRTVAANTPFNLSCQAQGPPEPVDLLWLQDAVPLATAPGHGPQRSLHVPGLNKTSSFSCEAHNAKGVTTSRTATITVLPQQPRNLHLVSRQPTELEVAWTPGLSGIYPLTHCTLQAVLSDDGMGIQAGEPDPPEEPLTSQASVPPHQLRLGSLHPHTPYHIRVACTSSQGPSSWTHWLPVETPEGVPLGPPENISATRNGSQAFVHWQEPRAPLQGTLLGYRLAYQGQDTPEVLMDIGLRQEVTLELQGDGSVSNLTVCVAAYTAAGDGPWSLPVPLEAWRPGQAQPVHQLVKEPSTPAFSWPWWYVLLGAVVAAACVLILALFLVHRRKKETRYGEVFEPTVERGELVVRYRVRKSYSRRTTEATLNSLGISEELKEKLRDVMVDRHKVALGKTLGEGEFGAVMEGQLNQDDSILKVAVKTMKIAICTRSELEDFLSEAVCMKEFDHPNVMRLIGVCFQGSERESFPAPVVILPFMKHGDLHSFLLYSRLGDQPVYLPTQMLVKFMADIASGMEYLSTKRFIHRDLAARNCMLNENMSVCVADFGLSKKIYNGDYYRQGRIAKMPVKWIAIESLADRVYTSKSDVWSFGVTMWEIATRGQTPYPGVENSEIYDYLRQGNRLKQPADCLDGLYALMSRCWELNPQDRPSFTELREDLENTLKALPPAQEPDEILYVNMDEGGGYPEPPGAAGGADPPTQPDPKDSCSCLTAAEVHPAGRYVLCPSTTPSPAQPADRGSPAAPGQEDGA

For the molecule `CN(C(=O)CN1CCOCC1)c1ccc2sc3c(-c4cccc5c(=O)cc(N6CC7CCC(C6)O7)oc45)cccc3c2c1` [NU5455], the inhibition at 1 µM was -4.2%.

These data come from article PMC6934184, “Selective DNA-PKcs inhibition extends the therapeutic index of localized radiotherapy and chemotherapy” (The Journal of Clinical Investigation, 2019).
